From PubChem BioAssay AID2060898 (Molecular Pharmacology Branch, DTP, NCI, 2025)

Test system: 616215-338-R-J1-PDC complex spheroid viability
Assay: Anticancer human tumor 616215-338-R-J1-PDC patient-derived colon adenocarcinoma cell line growth inhibition [RAS]
Conditions: for IC50: curve of first compound; for viability, T/C: stronger effect = lower value
How it was run: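 Agents were tested in combination matrices in half-log decrements from a top concentration at or near clinical Cmax (10 microM if undetermined). Targets were multi-cell spheroids of tumour lines plus HUVEC and MSC stromal cells.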

[1] = second compound 0.00316 µM, first compound 0.0316 µM
[2] = second compound 0.00316 µM, first compound 0.1 µM
[3] = second compound 0.00316 µM, first compound 0.316 µM
[4] = second compound 0.00316 µM, first compound 1 µM
[5] = second compound 0.00316 µM, first compound 3.16 µM
[6] = second compound 0.00316 µM, first compound 10 µM
[7] = second compound 0.01 µM, first compound 0.0316 µM
[8] = second compound 0.01 µM, first compound 0.1 µM
[9] = second compound 0.01 µM, first compound 0.316 µM
[10] = second compound 0.01 µM, first compound 1 µM
[11] = second compound 0.01 µM, first compound 3.16 µM
[12] = second compound 0.01 µM, first compound 10 µM
[13] = second compound 0.0316 µM, first compound 0.0316 µM
[14] = second compound 0.0316 µM, first compound 0.1 µM
[15] = second compound 0.0316 µM, first compound 0.316 µM
[16] = second compound 0.0316 µM, first compound 1 µM
[17] = second compound 0.0316 µM, first compound 3.16 µM
[18] = second compound 0.0316 µM, first compound 10 µM
[19] = second compound 0.1 µM, first compound 0.0316 µM
[20] = second compound 0.1 µM, first compound 0.1 µM
[21] = second compound 0.1 µM, first compound 0.316 µM
[22] = second compound 0.1 µM, first compound 1 µM
[23] = second compound 0.1 µM, first compound 3.16 µM
[24] = second compound 0.1 µM, first compound 10 µM
[25] = second compound 0.316 µM, first compound 0.0316 µM
[26] = second compound 0.316 µM, first compound 0.1 µM
[27] = second compound 0.316 µM, first compound 0.316 µM
[28] = second compound 0.316 µM, first compound 1 µM
[29] = second compound 0.316 µM, first compound 3.16 µM
[30] = second compound 0.316 µM, first compound 10 µM
[31] = second compound 1 µM, first compound 0.0316 µM
[32] = second compound 1 µM, first compound 0.1 µM
[33] = second compound 1 µM, first compound 0.316 µM
[34] = second compound 1 µM, first compound 1 µM
[35] = second compound 1 µM, first compound 3.16 µM
[36] = second compound 1 µM, first compound 10 µM
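Note: spheroids exposed to agents for seven days before viability readout.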
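Throughout, for viability, T/C: 100% = DMSO vehicle control viability.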

SMILES: CC(=O)OC12COC1CC(O)C1(C)C(=O)C(O)C3=C(C)C(OC(=O)C(O)C(NC(=O)OC(C)(C)C)c4ccccc4)CC(O)(C(OC(=O)c4ccccc4)C21)C3(C)C (stereo unspecified) + CCn1c(-c2cccnc2C(C)OC)c2c3cc(ccc31)N1CCOC(CC(NC(=O)C(C(C)C)N(C)C(=O)C3(F)CCN(C(=O)C#CC(C)(C)N(C)C)CC3)C(=O)N3CCCC(N3)C(=O)OCC(C)(C)C2)C1
- IC50 (second compound 0.000949 µM): < 0.0316 µM
- IC50 (second compound 0.003 µM): < 0.0316 µM
- IC50 (second compound 0.00949 µM): < 0.0316 µM
- IC50 (second compound 0.03 µM): < 0.0316 µM
- IC50 (second compound 0.0949 µM): < 0.0316 µM
- IC50 (second compound 0.3 µM): < 0.0316 µM
- viability, T/C (second compound 0.000949 µM, first compound 0.0316 µM): 30.9%
- viability, T/C (second compound 0.000949 µM, first compound 0.1 µM): 20.4%
- viability, T/C (second compound 0.000949 µM, first compound 0.316 µM): 19.5%
- viability, T/C (second compound 0.000949 µM, first compound 1 µM): 19.6%
- viability, T/C (second compound 0.000949 µM, first compound 3.16 µM): 22.6%
- viability, T/C (second compound 0.000949 µM, first compound 10 µM): 28.7%
- viability, T/C (second compound 0.003 µM, first compound 0.0316 µM): 30.8%
- viability, T/C (second compound 0.003 µM, first compound 0.1 µM): 23.1%
- viability, T/C (second compound 0.003 µM, first compound 0.316 µM): 20.3%
- viability, T/C (second compound 0.003 µM, first compound 1 µM): 22.1%
- viability, T/C (second compound 0.003 µM, first compound 3.16 µM): 24.2%
- viability, T/C (second compound 0.003 µM, first compound 10 µM): 27%
- viability, T/C (second compound 0.00949 µM, first compound 0.0316 µM): 28%
- viability, T/C (second compound 0.00949 µM, first compound 0.1 µM): 24.2%
- viability, T/C (second compound 0.00949 µM, first compound 0.316 µM): 19.9%
- viability, T/C (second compound 0.00949 µM, first compound 1 µM): 20.8%
- viability, T/C (second compound 0.00949 µM, first compound 3.16 µM): 24.8%
- viability, T/C (second compound 0.00949 µM, first compound 10 µM): 24.6%
- viability, T/C (second compound 0.03 µM, first compound 0.0316 µM): 25.9%
- viability, T/C (second compound 0.03 µM, first compound 0.1 µM): 21.9%
- viability, T/C (second compound 0.03 µM, first compound 0.316 µM): 18.3%
- viability, T/C (second compound 0.03 µM, first compound 1 µM): 19%
- viability, T/C (second compound 0.03 µM, first compound 3.16 µM): 22.6%
- viability, T/C (second compound 0.03 µM, first compound 10 µM): 22.4%
- viability, T/C (second compound 0.0949 µM, first compound 0.0316 µM): 33%
- viability, T/C (second compound 0.0949 µM, first compound 0.1 µM): 19.8%
- viability, T/C (second compound 0.0949 µM, first compound 0.316 µM): 19.8%
- viability, T/C (second compound 0.0949 µM, first compound 1 µM): 19%
- viability, T/C (second compound 0.0949 µM, first compound 3.16 µM): 22.2%
- viability, T/C (second compound 0.0949 µM, first compound 10 µM): 23.1%
- viability, T/C (second compound 0.3 µM, first compound 0.0316 µM): 28.8%
- viability, T/C (second compound 0.3 µM, first compound 0.1 µM): 17.9%
- viability, T/C (second compound 0.3 µM, first compound 0.316 µM): 17%
- viability, T/C (second compound 0.3 µM, first compound 1 µM): 17.6%
- viability, T/C (second compound 0.3 µM, first compound 3.16 µM): 20.8%
- viability, T/C (second compound 0.3 µM, first compound 10 µM): 25.5%

SMILES: CCC(CC)c1cc(NC2CCC(N)C2)n2nccc2n1 (stereo unspecified) + C=CC(=O)N1CCN(c2nc(OCC3CCCN3C)nc3c(F)c(-c4nc(N)cc(C)c4C(F)(F)F)c(Cl)cc23)C(C)C1
- IC50 (second compound 0.00316 µM): 1.77 µM
- IC50 (second compound 0.01 µM): 1.8 µM
- IC50 (second compound 0.0316 µM): 1.79 µM
- IC50 (second compound 0.1 µM): 1.78 µM
- IC50 (second compound 0.316 µM): 1.8 µM
- IC50 (second compound 1 µM): 1.86 µM
- viability, T/C [1]: 101%
- viability, T/C [2]: 97.5%
- viability, T/C [3]: 92.6%
- viability, T/C [4]: 97.8%
- viability, T/C [5]: 0.65%
- viability, T/C [6]: 2.31%
- viability, T/C [7]: 100%
- viability, T/C [8]: 102%
- viability, T/C [9]: 96.6%
- viability, T/C [10]: 102%
- viability, T/C [11]: 0.87%
- viability, T/C [12]: 2.95%
- viability, T/C [13]: 108%
- viability, T/C [14]: 100%
- viability, T/C [15]: 90.2%
- viability, T/C [16]: 105%
- viability, T/C [17]: 0.34%
- viability, T/C [18]: 0.25%
- viability, T/C [19]: 103%
- viability, T/C [20]: 95.2%
- viability, T/C [21]: 96.9%
- viability, T/C [22]: 104%
- viability, T/C [23]: 0.59%
- viability, T/C [24]: 0.27%
- viability, T/C [25]: 107%
- viability, T/C [26]: 90.1%
- viability, T/C [27]: 101%
- viability, T/C [28]: 105%
- viability, T/C [29]: 1.41%
- viability, T/C [30]: 1.72%
- viability, T/C [31]: 106%
- viability, T/C [32]: 106%
- viability, T/C [33]: 96.5%
- viability, T/C [34]: 114%
- viability, T/C [35]: 2.76%
- viability, T/C [36]: 2.4%

SMILES: C[C@@H](NC(=O)c1ncnc(N)c1Cl)c1ncc(C(=O)Nc2cc(C(F)(F)F)c(Cl)cn2)s1 + C=CC(=O)N1CCN(c2nc(OCC3CCCN3C)nc3c(F)c(-c4nc(N)cc(C)c4C(F)(F)F)c(Cl)cc23)C(C)C1
- IC50 (second compound 0.00316 µM): > 10 µM
- IC50 (second compound 0.01 µM): > 10 µM
- IC50 (second compound 0.0316 µM): > 10 µM
- IC50 (second compound 0.1 µM): 9.75 µM
- IC50 (second compound 0.316 µM): > 10 µM
- IC50 (second compound 1 µM): > 10 µM
- viability, T/C [1]: 109%
- viability, T/C [2]: 111%
- viability, T/C [3]: 120%
- viability, T/C [4]: 140%
- viability, T/C [5]: 118%
- viability, T/C [6]: 53.5%
- viability, T/C [7]: 106%
- viability, T/C [8]: 114%
- viability, T/C [9]: 121%
- viability, T/C [10]: 120%
- viability, T/C [11]: 97.1%
- viability, T/C [12]: 59.9%
- viability, T/C [13]: 102%
- viability, T/C [14]: 112%
- viability, T/C [15]: 114%
- viability, T/C [16]: 119%
- viability, T/C [17]: 122%
- viability, T/C [18]: 59.5%
- viability, T/C [19]: 118%
- viability, T/C [20]: 103%
- viability, T/C [21]: 113%
- viability, T/C [22]: 114%
- viability, T/C [23]: 107%
- viability, T/C [24]: 48.6%
- viability, T/C [25]: 114%
- viability, T/C [26]: 104%
- viability, T/C [27]: 113%
- viability, T/C [28]: 117%
- viability, T/C [29]: 116%
- viability, T/C [30]: 65%
- viability, T/C [31]: 112%
- viability, T/C [32]: 98.6%
- viability, T/C [33]: 111%
- viability, T/C [34]: 131%
- viability, T/C [35]: 112%
- viability, T/C [36]: 61.2%
